In patent publication US5593970A, “Heterocyclic anthracycline analogs” (priority 1994, dated 1997):
pIC50: −log10 of the molar value. Where two headings read alike, the source gives them in different places.

What was measured:
Assay in all cases: Microculture tetrazolium assay
Type in all cases: cell-based
[1] = tested on: LOX
[2] = tested on: SKOV3; settings: read-out: IC50
[3] = tested on: T47D; settings: read-out: IC50
[4] = tested on: HT29; settings: read-out: IC50
[5] = tested on: SKVLB; settings: for VLB/OV3: IC50 ratio SKVLB/SKOV3; for pIC50: SKVLB, read-out: IC50

Structure (SMILES)	pIC50 ([1]; read-out: IC50)	pIC50 ([2]; Homo sapiens, SK-OV-3, SKOV3)	pIC50 ([3]; Homo sapiens)	pIC50 ([4]; Homo sapiens, HT-29, HT29)	VLB/OV3 [5]	pIC50 [5]	pIC50 [1]	VLB/OV3 ([5]; listed as BCH1157)	pIC50 ([5]; listed as BCH1157)	pIC50 ([2]; SKOV3)	pIC50 [3]	pIC50 ([4]; HT29)	VLB/OV3 ([5]; listed as BCH1158)	pIC50 ([5]; listed as BCH1158)
CC(=O)OCC1(C2CC3=C(C(=O)c4c(cc5ccccc5c4O)C3=O)C(O[C@H]3C[C@H](NC(=O)C(F)(F)F)[C@H](O)[C@H](C)O3)O2)OCCCO1 (stereo partly drawn) [BCH-748]	5.00	5.31	5.11	5.22	1.72	5.08								
CC1(C2CC3=C(CO2)C(=O)c2c(cc4ccccc4c2O)C3=O)OCCCO1 (stereo not drawn) [BCH-1108]	4.00	5.82	5.42	5.55	1.5	5.64								
CC1(C2CC3=C(CO2)C(=O)c2cc4ccccc4c(O)c2C3=O)OCCCO1 (stereo not drawn) [BCH-1109]	4.12	4.21	4.33	4.20		4.00								
CC(=O)Oc1c2c(c(O)c3ccccc13)C(=O)C1=C(CC(C3(C)OCCCO3)OC1)C2=O (stereo not drawn) [BCH-1110]	4.00	4.00	4.00	4.54		4.00								
CC(=O)Oc1c2c(c(O)c3ccccc13)C(=O)C1=C(COC(C3(C)OCCCO3)C1)C2=O (stereo not drawn) [BCH-1111]	4.01	4.00	4.00	4.00		4.25								
CC1(C2CC3=C(CO2)C(=O)c2c(cc4ccccc4c2O)C3=O)OCCO1 (stereo not drawn) [BCH-1112]	5.27	5.29	5.04	5.26	0.55	5.55								
CC1(C2Cc3c(O)c4c(c(O)c3CO2)C(=O)c2ccccc2C4=O)OCCO1 (stereo not drawn) [BCH-1114]	4.00	4.19	4.00	4.16		4.00								
CC1(C2Cc3c(O)c4c(c(O)c3CO2)C(=O)c2ccccc2C4=O)OCCCO1 (stereo not drawn) [BCH-1115]	5.15	5.03	4.90	5.20	1.24	4.94								
CC(=O)C1Cc2c(O)c3c(c(O)c2C(O)O1)C(=O)c1ccccc1C3=O (stereo not drawn) [BCH-1116]	4.50	4.58	4.95	5.12	0.82	4.67								
CC(=O)[C@H]1CC2=C(C(=O)c3cc4ccccc4c(O)c3C2=O)[C@H](O[C@H]2C[C@H](O)[C@H](O)[C@H](C)O2)O1 [BCH-1123, (1'S,1S,3R)-Methyl-[6-hydroxy-1-(2',3',6'-trideoxy-3',4'-dihydroxy-L-lyxohexopyranose)-5,12-dioxo-3,4,5,12-tetrahydroanthraceno(2,3-C)pyran-3-yl]ketone]	5.91	5.85	5.42	6.36	0.92	5.89								
CC(=O)[C@@H]1CC2=C(C(=O)c3cc4ccccc4c(O)c3C2=O)[C@@H](O[C@H]2C[C@H](O)[C@H](O)[C@H](C)O2)O1 [BCH-1124, (1'S,1R,3S)-Methyl-[6-hydroxy-1-(2',3',6'-trideoxy-3',4'-dihydroxy-L-lyxohexopyranose)-5,12-dioxo-2,3,5,12-tetrahydroxyanthraceno(2,3-C)pyran-3-yl]ketone]		5.30	5.22	5.84	0.44	5.66	5.73							
C[C@@H]1O[C@@H](O[C@H]2O[C@H](C(=O)COC(=O)C(C)(C)C)CC3=C2C(=O)c2cc4ccccc4c(O)c2C3=O)C[C@H](NC(=O)C(F)(F)F)[C@@H]1O [BCH-1136, (1'S,1R,3S)-1,2,3,4,5,12-hexahydro-6-hydroxy-3-trimethylacetoxyaceto-1-N-trifluoroacetyl-L-daunosamine-(2-oxo)-naphthacene-5,12-dione]	4.91	4.74	4.72	4.94	1.28	4.64								
C[C@@H]1O[C@@H](O[C@@H]2O[C@@H](C(=O)COC(=O)C(C)(C)C)CC3=C2C(=O)c2cc4ccccc4c(O)c2C3=O)C[C@H](NC(=O)C(F)(F)F)[C@@H]1O [BCH-1137, (1'S,1S,3R)-1,2,3,4,5,12-hexahydro-6-hydroxy-3-trimethylacetoxyaceto-1-N-trifluoroacetyl-L-daunosamine-(2-oxo) naphthacene-5,12-dione]	5.05	4.86	5.08	5.20	1.03	4.85								
COC(=O)C1CC2=C(CS1)C(=O)c1cc3ccccc3c(O)c1C2=O (stereo not drawn) [BCH-1149]	4.60	4.52	4.41	4.53	1.38	4.38								
COC(=O)C1CC2=C(CS1)C(=O)c1c(cc3ccccc3c1O)C2=O (stereo not drawn) [BCH-1150]	4.07	4.00	4.11	4.19		4.00								
CC(=O)C1CC2=C(CS1)C(=O)c1cc3ccccc3c(O)c1C2=O (stereo not drawn) [BCH-1151]	4.52	4.27	4.20	4.23	1.41	4.12								
CC(=O)C1CC2=C(CS1)C(=O)c1c(cc3ccccc3c1O)C2=O (stereo not drawn) [BCH-1152]	4.00	4.00	4.00	4.00		4.00								
C[C@@H]1O[C@@H](O[C@H]2O[C@H](C3(CO)OCCCO3)CC3=C2C(=O)c2cc4ccccc4c(O)c2C3=O)C[C@H](N)[C@@H]1O [BCH-1153]	5.54	5.52	5.33	5.53	4.93	4.83								
C[C@@H]1O[C@@H](O[C@@H]2O[C@@H](C3(CO)OCCCO3)CC3=C2C(=O)c2cc4ccccc4c(O)c2C3=O)C[C@H](N)[C@@H]1O [BCH-1154]	5.43	5.05	4.85	5.07	3.18	4.55								
C=C[C@H]1CC2=C(C(=O)c3cc4ccccc4c(O)c3C2=O)[C@H](O[C@H]2C[C@H](NC(=O)C(F)(F)F)[C@H](O)[C@H](C)O2)O1 [BCH-1155]	5.40	5.20	5.07	5.06	1.12	5.15								
CC(=O)C1Cc2c(O)c3c(c(O)c2C(O[C@H]2C[C@H](N=[N+]=[N-])[C@H](I)[C@H](C)O2)O1)C(=O)c1ccccc1C3=O (stereo partly drawn) [BCH-1156]	4.00	4.58	4.00	4.44		4.00								
CC(=O)C1CC2=C(C(=O)c3cc4ccccc4c(O)c3C2=O)C(OC2CC(N=[N+]=[N-])C(I)C(C)O2)O1 (stereo not drawn) [BCH-1157]	< 4.00	4.83	4.42	4.89				1.43	4.68					
CC(=O)C1CC2=C(C(=O)c3cc4ccccc4c(O)c3C2=O)C(OC2CC(N=[N+]=[N-])C(I)C(C)O2)O1 (stereo not drawn) [BCH-1158]	< 4.00									5.08	4.59	5.08	0.74	5.21
CC(=O)O[C@@H]1[C@H](C)O[C@@H](O[C@H]2O[C@H](C(C)=O)CC3=C2C(=O)c2cc4ccccc4c(O)c2C3=O)C[C@@H]1OC(C)=O [BCH-1165, (1'S,1R,3S)-methyl-(6-hydroxy-1-(2',3',4',6'-tetradeoxy-3',4'-diacetyl-L-lyxohexopyranose)-5,12-dioxo-3,4,5,12-tetrahydroanthraceno-[2,3-c]pyran-3-yl) ketone]	4.63	4.52	4.50	5.00	1.38	4.38								
CC(=O)O[C@@H]1[C@H](C)O[C@@H](O[C@@H]2O[C@@H](C(C)=O)CC3=C2C(=O)c2cc4ccccc4c(O)c2C3=O)C[C@@H]1OC(C)=O [BCH-1166, (1'S,1S,3R)-methyl-(6-hydroxy-1-(2',3',4',6'-tetradeoxy-3',4'-diacetyl-L-lyxohexopyranose)-5,12-dioxo-3,4,5,12-tetrahydroanthraceno-[2,3-c]pyran-3-yl) ketone]	4.52	4.61	4.50	4.90	2.08	4.29								
CC(=O)C1CC2=C(C(=O)c3cc4ccccc4c(O)c3C2=O)C(O)S1 (stereo not drawn) [BCH-1167, Trans-3-aceto-1,6-hydroxy-1,2,3,4,5,12-hexahydro-2-(sulfur)naphthacene-5,12-dione and cis-3-aceto-1,6-hydroxy-1,2,3,4,5,12-hexahydro-2-(sulfur)naphthacene-5,12-dione]	< 4.00	< 4.00	< 4.00	< 4.00		< 4.00								
C=CC1CC2=C(C(=O)c3cc4ccccc4c(O)c3C2=O)C(O[C@H]2C[C@H](NC(=O)C(F)(F)F)[C@H](O)[C@H](C)O2)O1 (stereo partly drawn) [BCH-1168]	4.00	4.06	4.07	4.00	1.07	4.03								
C[C@@H]1O[C@@H](O[C@H]2O[C@H](C(=O)CO)CC3=C2C(=O)c2cc4ccccc4c(O)c2C3=O)C[C@H](NC(=O)C(F)(F)F)[C@@H]1O [BCH-1175, (1', S,1R,3S)-1,2,3,4,5,12-hexahydro-6-hydroxy-3-hydroxy-aceto-1-N-trifluoroacetyl-L-daunosamine-(2-oxo) naphthacene-5, 12-dione]	< 4.00	< 4.00	< 4.00	< 4.00		< 4.00								
